Marks after values point to notes of the source that are not given here. One block for each molecule: values may come before it.
Columns and labels:
[1] = HORAC assay (OxiSelect HORAC Assay), loss of FITC fluorescence; assay type: biochemical
Experimental: (§1) This assay procedure was used to screen materials for antioxidant properties using non-cell-based methods. Dilutions of HSP tested were 10%, 5%, 1%, 0.5%, 0.1%, 0.05%, and 0.01%.
(§2) Fluorescein (FITC) is normally a highly fluorescent molecule, yet when fluorescein is oxidized by either peroxyl radicals or hydroxyl radicals, it loses its fluorescence. Thus, when FITC is incubated in the presence of 2,2′-azobis(2-amidino-propane) dihydrochloride (AAPH, a peroxyl radical generating compound), or a combination of hydrogen peroxide and cobalt (a hydroxyl radical generating system based on the Fenton-type reaction), there will be a time dependent loss of FITC fluorescence. However, if a material with antioxidant properties is present during the incubation, the loss of fluorescence will be delayed as some of the peroxyl or hydroxyl radicals react with the antioxidant material instead of the FITC. Under these conditions, the delay or prevention in fluorescence decay will be in proportion to the antioxidant capacity of the test material.
The HORAC assay was performed as specified by the manufacturer of the kit. For the assay, the test materials were prepared in Assay Buffer at 10× their final desired concentrations. Caffeic acid was used as the positive control for this assay. To start the assay, 20 μl of the test material or positive control were added to the wells of a 96-well plate. All of the samples were prepared in triplicate. Next, 140 μl of an FITC solution was added to each well and the plate was incubated for 30 minutes in the dark. After this incubation, 20 μl of a hydrogen peroxide solution (Hydroxyl Radical Initiator) was added to each well, followed by the addition of 20 μl of a cobalt solution (Fenton Reagent). The plate was mixed and then read using a Fluoroskan Ascent Fluorometer at 3-minute intervals for 60 minutes with an excitation wavelength of 480 nm and an emission wavelength of 518 nm.
(§3) The loss of FITC fluorescence can be graphed by plotting fluorescence intensity vs time for each of the samples to generate a fluorescence decay curve. The area under this curve (AUC) then represents the extent of FITC fluorescence loss over the course of the assay, and this measurement is then used as an index for the effectiveness of the antioxidant samples. The AUC for a sample can be calculated using the following equation: […]
(§4) Where RFUO is the initial fluorescence measurement of the sample at time 0, with each subsequent RFU measurement indicated by the respective increased numbers. The AUC measurements were then used to determine the percent inhibition for each concentration of the test material screened, followed by the determination of the IC50, the concentration of the material at which 50% of the FITC signal loss due to radical interaction is prevented.

[2] = Osmotic stress assay: keratinocytes pretreated, exposed to hypertonic NaCl media, viability by MTT; assay type: cell-based, human; conditions: human, human adult epidermal keratinocytes, then 24 h with 0 mM added NaCl, MTT, % of untreated 0 mM NaCl control, mean +/- SD, read-out: Cell Viability
Experimental: (§5) This assay procedure was used to screen the recombinantly produced HSP for its ability to protect against osmotic stress, using cultured human keratinocytes as the testing model. The assay used changes in cell viability as the endpoint for measuring the protective effect.
(§6) For this study, human keratinocytes were pretreated for 24 hours with either HSP, a mild hypertonic solution of sorbitol (positive control), or left untreated (negative control). After the pretreatment, the cell culture media was replaced with media supplemented with NaCl at progressively increasing hypertonic concentrations. The cells were then incubated again for 24 hours. After the second incubation, cell viability was determined using an MTT assay.
(§7) The MTT assay is a colorimetric analysis of the metabolic activity of the cell, which is a reflection of cell viability. Viable cells can take up MTT, which is then reduced by mitochondria, resulting in the formation of insoluble purple formazin crystals. These crystals are then extracted from the cells with isopropanol and quantified spectrophotometrically. The intensity of the purple color is directly proportional to the number of viable cells.
(§8) Human adult epidermal keratinocytes were grown using EpiLife Media (60 µM calcium) supplemented with 0.2% v/v bovine pituitary extract, 1 μg/ml recombinant human insulin-like growth factor-1, 0.18 μg/ml hydrocortisone, 5 μg/ml bovine transferrin, 0.2 ng/ml human epidermal growth factor. When a sufficient number of cells had been grown, they were transferred to 96-well plates and cultured for a minimum of 24 hours to allow the cells to adhere to the well plates. The cells were then used when they were fully confluent.
(§9) The test materials and the sorbitol positive controls were prepared in fully supplemented EpiLife media. Supplemented EpiLife media alone served as the untreated control. These solutions were applied to the keratinocytes in the 96-well plates, after which the plates were incubated for 24 hours at 37±2° C. and 5±1% CO2.
(§10) After the pretreatment incubation, the cell culture media was removed from both of the 96-well plates and replaced with supplemented EpiLife media which had progressively increasing concentrations of additional NaCl added (0, 75, 100, 125 and 150 mM) to generate a series of increasingly hypertonic solutions. After the addition of the media/NaCl, the 96-well plates were incubated for an additional 24 hours.
(§11) After the second 24-hour incubation, the cell culture media was removed and the cells were washed once with phosphate buffered saline. After washing, 100 μl of keratinocyte cell culture media supplemented with MTT (0.5 mg/ml) was added to each well. The 96-well plates were returned to the incubator (37+2° C. and 5+1% CO2) for one hour. After the incubation the MTT solution was removed via aspiration and the cells were rinsed twice with phosphate buffered saline to remove any residual MTT on the outside of the cells and then 100 μl of isopropyl alcohol was added to the wells to extract the purple formazin crystals. The well plates were then read at 540 nm using isopropyl alcohol as a blank.
(§12) The mean MTT absorbance value for the untreated control cells not exposed to any osmotic stress (0 mM NaCl) was calculated and used to represent 100% cell viability. The individual MTT values from the cells undergoing the various treatments were then divided by the mean value for the negative control cells and expressed as a percentage to determine the change in cell viability caused by each treatment.

human keratinocytes = experiment: as above; assay type: cell-based; conditions: for Cell Viability: MTT, % of untreated 0 mM NaCl control, mean +/- SD
Experimental: as §5, §6, §7, §8, §9, §10, §11, §12

[3] = ORAC assay, loss of FITC fluorescence with AAPH; assay type: biochemical
Experimental: as §1, §2
For the ORAC assay, the test materials were prepared in Assay Buffer at 10× their final desired concentrations. Trolox was used as the positive control for this assay. To start the assay, 20 μl of the test material or positive control were added to the wells of a 96-well plate. All of the samples were prepared in triplicate. Next, 160 μl of a 360 nM FITC solution was added to each well and the plate was incubated for 30 minutes in the dark. After this incubation, 20 μl of a 153 mM AAPH (peroxyl radical generator) was added to each well. The plate was mixed and then read using a Fluoroskan Ascent Fluorometer at 2.5-minute intervals for 60 minutes with an excitation wavelength of 480 nm and an emission wavelength of 518 nm.
as §3, §4

[4] = concentration at which 50% of the FITC signal loss is prevented

IC50 [1, 4]: IC50: 3.25 ug/ml
Compound: O=C(O)/C=C/c1ccc(O)c(O)c1 [Caffeic Acid, Caffeic acid, reference compound]
Percent Inhibition ([1]; concentration 0.625 ug/ml): 8.85%
Percent Inhibition ([1]; concentration 1.25 ug/ml): 14.56%
Percent Inhibition ([1]; concentration 2.5 ug/ml): 56.30%
Percent Inhibition ([1]; concentration 5 ug/ml): 68.86%
Percent Inhibition ([1]; concentration 10 ug/ml): 60.03%
Percent Inhibition ([1]; concentration 20 ug/ml): 62.58%

Compound: OC[C@@H](O)[C@@H](O)[C@H](O)[C@@H](O)CO [Sorbitol, sorbitol, reference compound]
viability at 24 h, 12.5 mM ([2]; 24 h pretreatment with 12.5 mM Sorbitol): 101%
viability at 24 h, 25 mM ([2]; 24 h pretreatment with 25 mM Sorbitol): 122%
Cell Viability (human keratinocytes; 24 h pretreatment with 12.5 mM Sorbitol, then 24 h with 75 mM added NaCl): 103.2 +/− 1.8%
Cell Viability (human keratinocytes; 24 h pretreatment with 12.5 mM Sorbitol, then 24 h with 100 mM added NaCl): 98.3 +/− 6.0* %
Cell Viability (human keratinocytes; 24 h pretreatment with 12.5 mM Sorbitol, then 24 h with 125 mM added NaCl): 73.2 +/− 13.3* %
Cell Viability (human keratinocytes; 24 h pretreatment with 12.5 mM Sorbitol, then 24 h with 150 mM added NaCl): 24.1 +/− 9.6%
Cell Viability (human keratinocytes; 24 h pretreatment with 25 mM Sorbitol, then 24 h with 75 mM added NaCl): 100.0 +/− 7.7%
Cell Viability (human keratinocytes; 24 h pretreatment with 25 mM Sorbitol, then 24 h with 100 mM added NaCl): 93.9 +/− 2.8* %
Cell Viability (human keratinocytes; 24 h pretreatment with 25 mM Sorbitol, then 24 h with 125 mM added NaCl): 69.5 +/− 9.7* %
Cell Viability (human keratinocytes; 24 h pretreatment with 25 mM Sorbitol, then 24 h with 150 mM added NaCl): 29.5 +/− 5.6%
cell viability versus untreated cell samples (human keratinocytes; at both 100 mM and 125 mM NaCl): significantly greater than the untreated cell samples
osmoprotective effect (human keratinocytes; highest concentration of added NaCl (150 mM)): neither HSP nor sorbitol (positive control) showed a significant osmoprotective effect
effect on the reduction in cell viability caused by the increase in hypertonicity (human keratinocytes; increasing added NaCl, overall statement): slow the reduction in cell viability

IC50 [3, 4]: IC50: 0.42 ug/ml
Compound: Cc1c(C)c2c(c(C)c1O)CCC(C)(C(=O)O)O2 (stereo not shown) [Trolox, reference compound]
Percent Inhibition ([3]; concentration 0.078125 ug/ml): 30.79%
Percent Inhibition ([3]; concentration 0.15625 ug/ml): 47.09%
Percent Inhibition ([3]; concentration 0.3125 ug/ml): 68.77%
Percent Inhibition ([3]; concentration 0.625 ug/ml): 83.84%
Percent Inhibition ([3]; concentration 1.25 ug/ml): 84.06%
Percent Inhibition ([3]; concentration 2.5 ug/ml): 87.4%
Percent Inhibition ([3]; concentration 5 ug/ml): 90.3%

From patent US20250304630A1, “POLYPEPTIDES HAVING OSMOPROTECTIVE ACTIVITY, COMPOSITIONS THEREOF AND USES THEREOF” (DELAVIE SCIENCES, LLC, priority 2022, published 2025)
